The source of these data is US4278676A, “Heterocyclic compounds” (H. Lundbeck & Co. A/S, priority 1977, dated 1981).

Data set [1] deals with substantia nigra. In words: Unilateral injections into substantia nigra in rats. Type of data set: in vivo, rat. The procedure: (b) Unilateral injections. 0.1 and 0.5 μg of Ia,Hbr have been injected.
Data set [2] concerns morphine-induced motility. Briefly: Antagonism of morphine-induced motility. Type of data set: in vivo. The following applies: Mus musculus; mice; read-out: MED (minimum effective dose), morphine-induced motility. From the text:
(b) Antagonism of morphine-induced motility (Christensen et al.: Muscimol antagonizes morphine hypermotility without potentiation of analgesia. European J. Pharmacol., 1978, 48, 459-462).

The test system of data set [3] is methylphenidate-induced gnawing. In words: Potentiation of methylphenidate-induced gnawing. The data set is classed as in vivo. The following applies: Mus musculus, read-out: ED50 (the dose which causes potentiation in 50% of the animals), mice. From the text: (a) Potentiation of methylphenidate-induced gnawing (Scheel-Kruger et al.: Muscimol differentially facilitates stereotypy but antagonizes motility induced by dopaminergic drugs. A complex GABA-DOPAMINE interaction. Life Sciences, 1978, Vol. 22, 75-84).

For data set [4], the system named is substantia nigra. In words: Bilateral injections into substantia nigra in rats. The data set is classed as in vivo, rat. The procedure:
(a) Bilateral injections. 0.1, 0.5, and 1.0 μg of Ia,HBr have been injected.

The test system of data set [5] is isoniazide-induced convulsions. In words: Antagonism of isoniazide-induced convulsions. The data set is classed as in vivo. Conditions: Mus musculus, ip; mice, test compound i.p., isoniazide 300 mg/kg s.c.; read-out: MED (minimum effective dose), isoniazide-induced convulsions. The procedure: (c) Antagonism of isoniazide-induced convulsions (Modification (mice, two times lower concentration of isoniazide) of Mao et al.: Evidence for an involvement of GABA in the mediation of cerebellar c-GMP decrease and the anticonvulsant action of diazepam. Naunyn-Smiedeberg's Arch. Pharmacol. 1975, 289, 369-378).
Conditions and procedure for isoniazide antagonism test:
Isoniazide 300 mg/kg s.c.
Five mice are used for each dose level. Immediately after administration of test substance, isoniazide 300 mg/kg is injected s.c. This dose of isoniazide induces intermittent tonic clonic seizures within 60 minutes. The calculations are performed as on "on line procedure" on the EDP-terminal.

Data set [6] is described as follows: Acute toxicity (mice). Conditions: mouse, in vivo.
For data set [7], the system named is lumbar dorsal horn interneurones and Renshaw cells. Briefly: Microelectrophoretic experiments on central neurones of anaesthetized cats. Type of data set: in vivo. Conditions: bicuculline methochloride (BMC), cat central neurones. The procedure:
In order to study the interactions of the compound Ia with the central GABA receptors in vivo, the compound Ia was tested in microelectrophoretic experiments. Experiments were performed on lumbar dorsal horn interneurones and Renshaw cells of cats anaesthetized with pentobarbitone sodium. The approximate potency of the depressant actions of the compound was assessed relative to that of GABA on the basis of electrophoretic currents required to produce equal and submaximal inhibitions of the firing of the central neurones. The inhibitory action of Ia on central neurones was antagonized by the specific GABA antagonist bicuculline methochloride (BMC).

Data set [8] concerns GABA uptake system. In words: Interaction with GABA uptake system. Type of data set: biochemical. On the set-up: dose or concentration left out as unconfirmed.
The test system of data set [9] is L-glutamate 1-carboxylase. Briefly: Interaction with GABA metabolizing enzyme (carboxylase). The data set is classed as biochemical. The following applies: concentrations of 10^-3 M.
Data set [10] concerns the target GABA:2-oxo-glutarate aminotransferase (Homo sapiens, UniProt P80404). Briefly: Interaction with GABA metabolizing enzyme (aminotransferase). Type of data set: biochemical. Conditions: concentrations of 10^-3 M.
Where [11] appears, read: iv, read-out: Acute Toxicity (Mice) LD50 i.v.
The mark [12] stands for this setting: po, read-out: Acute Toxicity (Mice) LD50 p.o.

Like-named read-outs stand apart in the source and are kept apart here. Where only a bound is given, the exact number is not on record here.

Chain of GABA:2-oxo-glutarate aminotransferase (P80404 29-500): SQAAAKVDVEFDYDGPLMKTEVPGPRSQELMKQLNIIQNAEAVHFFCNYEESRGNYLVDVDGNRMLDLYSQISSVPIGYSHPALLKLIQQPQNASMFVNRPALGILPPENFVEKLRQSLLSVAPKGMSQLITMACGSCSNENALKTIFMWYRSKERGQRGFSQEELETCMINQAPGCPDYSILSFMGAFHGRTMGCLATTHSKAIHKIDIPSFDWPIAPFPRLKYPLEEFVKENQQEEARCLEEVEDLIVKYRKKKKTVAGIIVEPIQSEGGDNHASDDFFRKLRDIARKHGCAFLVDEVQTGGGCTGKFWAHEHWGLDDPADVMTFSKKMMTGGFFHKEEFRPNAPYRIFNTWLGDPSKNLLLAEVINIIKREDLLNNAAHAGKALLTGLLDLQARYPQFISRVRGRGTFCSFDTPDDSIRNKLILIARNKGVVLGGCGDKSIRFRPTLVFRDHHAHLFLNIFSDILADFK

Consider `Oc1noc2c1CCNC2` [Compound Ia,HBr, 3-Hydroxy-4,5,5,7-tetrahydroisoxazolo[5,4-pyridinium bromide], for which the “Behaviour after unilateral injection into substantia nigra” value in data set [1] (0.1 and 0.5 μg injected) is “strong and prolonged contralateral turning”. Also, the minimal effective dose turned out to be 1 mg/kg in data set [2] and 1.3 mg/kg in data set [5]. In addition, the ED50 in [3] came to 3 mg/kg. Moreover, in data set [4] (0.1, 0.5 and 1.0 μg injected), the “Behaviour after bilateral injection into substantia nigra” value is “pronounced stereotypic behaviour”. The LD50 in data set [6] (setting [11]) is 80 mg/kg; in data set [6] (setting [12]) it was over 320 mg/kg.
Consider `NCCCC(=O)O` [GABA, gamma-aminobutyric acid, reference compound], for which the “Reversible antagonism by BMC” value in [7] is given as “yes”.
Take `Oc1noc2c1CCNC2` [Ia, 4,5,6,7-Tetrahydroisoxazolo[5,4-c]pyridin-3-ol zwitterion]: in data set [8], the “Interaction with the GABA uptake system” value is on record as “did not interact”. Besides, in data set [1] (substantia nigra), the “Potency compared with muscimol, unilateral injection” value is reported as “weaker than muscimol”. Also, the “Interaction with L-glutamate 1-carboxylase” value in data set [9] is recorded as “did not interact”. Also, the “Interaction with GABA:2-oxo-glutarate aminotransferase” value in data set [10] is on record as “did not interact”. In addition, the “Reversible antagonism by BMC” value in data set [7] is listed as “yes”. For the same molecule, in [4] (substantia nigra), the “Potency compared with muscimol, bilateral injection” value is on record as “weaker than muscimol”.
For the molecule `NCc1cc(=O)[nH]o1` [Muscimol, muscimol], the LD50 is 12 mg/kg in [6] (ip, read-out: Acute Toxicity (Mice) LD50 i.p.); 7 mg/kg in data set [6] (setting [11]); 22 mg/kg in [6] (setting [12]).
In the case of `NCc1cc(=O)[nH]o1` [Muscimol,HBr, reference compound], the minimal effective dose in [2] and in data set [5] was 0.6 mg/kg in each case. Further, the ED50 in data set [3] is 0.7 mg/kg.

Usually ED50 stands for the dose at which the effect has come halfway, by size or by number of responders. Broadly, the LD50 is the dose at which mortality reaches 50%.
